The source of these data is patent publication US9856278B2, “Lysophosphatidylserine derivative” (THE UNIVERSITY OF TOKYO, priority 2014, dated 2018).

In one data set the target is T1, mouse GPR174 (Mus musculus, UniProt Q3U507).
T1 construct: expressed in transfected cells; host or cells: HEK293 cells, transient transfection with pCAGGS vector (LipofectAMINE 2000)
Kind of data set: TGFα cleavage assay, agonistic activity against GPR174. The following applies: for GPR174/LPS3 agonistic activity: HEK293 cells transfected with AP labeled TGFα and mouse GPR174, graded against EC50 of Reference Compound 1; for EC50: HEK293 cells, mouse GPR174, AP-TGFα release, value in parentheses, read-out: GPR174/LPS3 EC50. The format is cell-based. The method, then: (§1) In a Dulbecco's modified Eagle's medium (DMEM) containing 10% bovine fetal calf serum (FCS), HEK293 cells were suspended to give a density of 2.0×10^5 cells/mL and seeded in 4 mL portions in 60 mm dishes. After 24-hr culture in the presence of 5% CO2, transfection with various expression vectors was performed using LipofectAMINE 2000 (Invitrogen). For each 60 mm dish, a plasmid vector for AP labeled TGFα was used in an amount of 1 μg and a pCAGGS plasmid vector for mouse GPR34, P2Y10 or GPR174 was also used in an amount of 1 μg. The plasmid vectors were provided by the methods disclosed in Patent Documents 2 and 5. It should be noted that the AP labeled TGFα is a protein having a human placental alkaline phosphatase fused to the N terminal of membrane-bound pro-TGFα, and a plasmid vector for the AP labeled TGFα can be prepared based on the disclosure of Tokumaru et al., J Cell Biol 151, 209-220 (2000). Twenty-four hours after transfection, cells were dissociated using trypsin/EDTA, resuspended in the culture broth to give a density of 2.0×10^4 cells/well, and seeded in a 96-well plate. In the case of stimulation with compounds, a Hank's balanced salt solution (HBSS, containing 5 mM HEPES) was used. After standing for 30 minutes, test compounds were added at varying concentrations, followed by standing for an additional one hour in the presence of 5% CO2. The 96-well plate was centrifuged (190×g, 3 min) and 80 μL of the supernatant was transferred to another 96-well plate. A reaction buffer (40 mM Tris-HCl (pH 9.5)) containing 10 mM p-nitrophenyl phosphate (p-NPP) was added in an amount of 80 μL to both the supernatant and the cells. After OD405 measurement with a microplate reader (background), heating was done at 37° C. for an hour and then another OD405 measurement was performed. For each well, the background was subtracted from the absorbance measured the second time and the result was fitted to the following formula to calculate AP activity.
(§2) Further, the values obtained by subtracting the AP activity (%) for the unstimulated group were plotted on the vertical axis to draw a graph. […] The EC50 values of the respective compounds are also cited in parentheses.

For the next data set, the target named is T2, mouse P2Y10 (Mus musculus, UniProt Q8BFU7).
T2 construct: expressed in transfected cells; host or cells: HEK293 cells, transient transfection with pCAGGS vector (LipofectAMINE 2000)
Briefly: TGFα cleavage assay, agonistic activity against P2Y10. The format is cell-based. The following applies: for P2Y10/LPS2 agonistic activity: HEK293 cells transfected with AP labeled TGFα and mouse P2Y10, graded against EC50 of Reference Compound 1; for EC50: HEK293 cells, mouse P2Y10, AP-TGFα release, value in parentheses, read-out: P2Y10/LPS2 EC50; for selectivity for P2Y10: against GPR34 and GPR174, from Table 3. The method, then: as §1, §2

The target in a further data set is T3, mouse GPR34 (Mus musculus, UniProt Q9R1K6).
T3 construct: expressed in transfected cells; host or cells: HEK293 cells, transient transfection with pCAGGS vector (LipofectAMINE 2000)
Briefly: TGFα cleavage assay, agonistic activity against GPR34. The format is cell-based. The following applies: HEK293 cells transfected with AP labeled TGFα and mouse GPR34; graded against EC50 of Reference Compound 1. The method, then: as §1
Further, the values obtained by subtracting the AP activity (%) for the unstimulated group were plotted on the vertical axis to draw a graph.

Each structure is given as a SMILES string. Structures can show the parent of a compound that is named as a salt.

T3 sequence (Q9R1K6 whole entry): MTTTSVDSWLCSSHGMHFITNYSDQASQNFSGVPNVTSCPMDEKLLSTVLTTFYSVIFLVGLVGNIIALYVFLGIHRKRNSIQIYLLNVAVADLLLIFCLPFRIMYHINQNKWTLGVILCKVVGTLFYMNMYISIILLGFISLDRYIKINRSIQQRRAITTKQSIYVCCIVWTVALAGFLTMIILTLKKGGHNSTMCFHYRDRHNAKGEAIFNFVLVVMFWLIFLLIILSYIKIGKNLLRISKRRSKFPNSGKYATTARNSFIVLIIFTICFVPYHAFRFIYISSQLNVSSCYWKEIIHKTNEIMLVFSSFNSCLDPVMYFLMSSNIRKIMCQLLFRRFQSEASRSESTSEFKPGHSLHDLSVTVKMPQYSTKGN
T1 sequence (Q3U507 whole entry): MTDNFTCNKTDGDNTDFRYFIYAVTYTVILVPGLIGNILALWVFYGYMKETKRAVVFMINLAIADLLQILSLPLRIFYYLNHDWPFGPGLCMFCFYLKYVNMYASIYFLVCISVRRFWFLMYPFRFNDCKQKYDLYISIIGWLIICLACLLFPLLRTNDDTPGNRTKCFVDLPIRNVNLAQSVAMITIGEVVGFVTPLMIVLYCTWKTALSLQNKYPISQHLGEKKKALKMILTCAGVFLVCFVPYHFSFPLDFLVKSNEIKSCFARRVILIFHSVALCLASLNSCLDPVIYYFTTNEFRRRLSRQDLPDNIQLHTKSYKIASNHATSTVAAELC
T2 sequence (Q8BFU7 whole entry): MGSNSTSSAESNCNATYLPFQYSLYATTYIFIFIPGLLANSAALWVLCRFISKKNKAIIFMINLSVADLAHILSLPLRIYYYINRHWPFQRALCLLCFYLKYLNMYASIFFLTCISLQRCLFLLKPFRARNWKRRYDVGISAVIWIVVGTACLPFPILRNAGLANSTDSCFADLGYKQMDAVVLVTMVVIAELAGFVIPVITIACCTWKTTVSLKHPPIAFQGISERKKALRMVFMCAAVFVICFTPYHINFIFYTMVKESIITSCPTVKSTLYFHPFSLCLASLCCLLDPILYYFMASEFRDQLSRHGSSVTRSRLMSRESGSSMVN

`CCCCCCCCCCCOc1ccccc1CCC(=O)OCc1ccc(OP(=O)(O)OC[C@H](N)C(=O)O)cc1` (as salt: TFA): the melting point (in general, the temperature, or range, at which the solid turns liquid) lay within 184 to 193 °C.
`N[C@@H](COP(=O)(O)Oc1cccc(COC(=O)CCc2ccccc2OCc2cccc(Oc3ccccc3)c2)c1)C(=O)O` (as salt: TFA) [Example 7, O-(hydroxy(3-(((3-(2-((3-phenoxybenzyl)oxy)phenyl)propanoyl)oxy)methyl)phenoxy)phosphoryl)-L-serine] displayed a melting point of 175 to 185 °C.
For `CCCCCCCCCCCOc1ccccc1CCC(=O)Oc1cccc(OP(=O)(O)OC[C@H](N)C(=O)O)c1` (as salt: salt) [Example 2, O-(hydroxy(3-((3-(2-(undecyloxy)phenyl)propanoyl)oxy)phenoxy)phosphoryl)-L-serine], the melting point was in the range of 123 to 126.5 °C.
Consider `CCCCCCCCCCCOc1ccccc1CCC(=O)Oc1ccc(OP(=O)(O)OC[C@H](N)C(=O)O)cc1` (as salt: salt) [Example 3, O-(hydroxy(4-((3-(2-(undecyloxy)phenyl)propanoyl)oxy)phenoxy)phosphoryl)-L-serine], for which the melting point fell in the range of 140.5 to 142 °C.
Regarding `CCCCCCCCCCCOc1ccccc1CCC(=O)Oc1cccc(OP(=O)(O)OC[C@H](N)C(=O)O)c1` [Example 2, O-(hydroxy(3-((3-(2-(undecyloxy)phenyl)propanoyl)oxy)phenoxy)phosphoryl)-L-serine], the GPR174/LPS3 agonistic activity result on mouse GPR174 is listed as “−”. On mouse P2Y10, the P2Y10/LPS2 agonistic activity entry was “+++~++++”, the EC50 is 14 nM and the “selectivity for P2Y10” value is “agonists having selectivity for P2Y10”. The GPR34/LPS1 agonistic activity result at mouse GPR34 was “−”.
For the molecule `CCCCCCCCCCCOc1ccccc1CCC(=O)Oc1ccc(OP(=O)(O)OC[C@H](N)C(=O)O)cc1` [Example 3, O-(hydroxy(4-((3-(2-(undecyloxy)phenyl)propanoyl)oxy)phenoxy)phosphoryl)-L-serine], on mouse GPR174, the GPR174/LPS3 agonistic activity entry is “+~++” and the EC50 came out at 340 nM. Further, at mouse P2Y10, the P2Y10/LPS2 agonistic activity result is “+++~++++”, the EC50 stood at 7 nM and the “selectivity for P2Y10” value is on record as “agonists having selectivity for P2Y10”. On mouse GPR34, the GPR34/LPS1 agonistic activity entry was “−”.
Consider `CCCCCCCCCCCOc1ccccc1CCC(=O)OCc1ccccc1OP(=O)(O)OC[C@H](N)C(=O)O` [Example 4, O-(hydroxy(2-(((3-(2-(undecyloxy)phenyl)propanoyl)oxy)methyl)phenoxy)phosphoryl)-L-serine], for which, on mouse GPR174, the GPR174/LPS3 agonistic activity result was “+”. Also, the P2Y10/LPS2 agonistic activity entry on mouse P2Y10 is reported as “++”. Besides, the GPR34/LPS1 agonistic activity result at mouse GPR34 was “+++”.
On to `CCCCCCCCCCCOc1ccccc1CCC(=O)OCc1cccc(OP(=O)(O)OC[C@H](N)C(=O)O)c1` [Example 6, O-(hydroxy(3-(((3-(2-(undecyloxy)phenyl)propanoyl)oxy)methyl)phenoxy)phosphoryl)-L-serine], for which the GPR174/LPS3 agonistic activity result on mouse GPR174 is given as “+~++”. On mouse P2Y10, the P2Y10/LPS2 agonistic activity entry is reported as “++++”, the EC50 stood at 3.3 nM and the “selectivity for P2Y10” value is recorded as “agonists having selectivity for P2Y10”. Moreover, at mouse GPR34, the GPR34/LPS1 agonistic activity entry is listed as “−~++”.
On the same counts, the results for `N[C@@H](COP(=O)(O)Oc1cccc(COC(=O)CCc2ccccc2OCc2cccc(Oc3ccccc3)c2)c1)C(=O)O` [Example 7, O-(hydroxy(3-(((3-(2-((3-phenoxybenzyl)oxy)phenyl)propanoyl)oxy)methyl)phenoxy)phosphoryl)-L-serine] are “−~+”, “++~+++”, 31 nM, “agonists having selectivity for P2Y10” and “−”.
On the same counts, the results for `CCCCCCCCCCCOc1ccccc1CCC(=O)Oc1cccc(COP(=O)(O)OC[C@H](N)C(=O)O)c1` [Example 9, O-(hydroxy((3-((3-(2-(undecyloxy)phenyl)propanoyl)oxy)benzyl)oxy)phosphoryl)-L-serine] are “−”, “+++”, 30 nM, “agonists having selectivity for P2Y10” and “−”.
For the molecule `N[C@@H](COP(=O)(O)OCc1cccc(OC(=O)CCc2ccccc2OCc2cccc(Oc3ccccc3)c2)c1)C(=O)O` [Example 10, O-(hydroxy((3-((3-(2-((3-phenoxybenzyl)oxy)phenyl)propanoyl)oxy)benzyl)oxy)phosphoryl)-L-serine], on mouse GPR174, the GPR174/LPS3 agonistic activity result is listed as “+~++”. For the same molecule, on mouse P2Y10, the P2Y10/LPS2 agonistic activity entry is listed as “++”. In addition, the GPR34/LPS1 agonistic activity result on mouse GPR34 is reported as “−~+”.
As to `CCCCCCCCCCCOc1ccccc1CCC(=O)OCC#CCOP(=O)(O)OC[C@H](N)C(=O)O` [Example 12, O-(hydroxy((4-((3-(2-(undecyloxy)phenyl)propanoyl)oxy)but-2-yn-1-yl)oxy)phosphoryl)-L-serine], the GPR174/LPS3 agonistic activity result at mouse GPR174 is “+”. Also, at mouse P2Y10, the P2Y10/LPS2 agonistic activity entry is “++++~+++++”, the EC50 was determined as 1.5 nM and the “selectivity for P2Y10” value is “agonists having selectivity for P2Y10”. The GPR34/LPS1 agonistic activity result on mouse GPR34 was “−”.
In turn, `Cc1ccc(Oc2cccc(COc3ccccc3CCC(=O)O)c2)cc1` [Example 33, 3-(2-((3-(p-tolyloxy)benzyl)oxy)phenyl)propanoic acid] registered a melting point of 104.5 to 106 °C.
On the same count and under the same terms, under `Cc1cccc(C)c1-c1cccc(COc2ccccc2CCC(=O)O)c1` [Example 36, 3-(2-((2′,6′-dimethyl[1,1′-biphenyl]-3-yl)methoxy)phenyl)propanoic acid] stands 117.5 to 120 °C.
For the molecule `CC(C)(C)c1ccc(Oc2cccc(COc3ccccc3CCC(=O)O)c2)cc1` [Example 42, 3-(2-((3-(4-(tert-butyl)phenoxy)benzyl)oxy)phenyl)propanoic acid], the melting point is 111.1 to 112.5 °C.
Still for that read-out and setting: under `O=C(O)CCc1ccccc1OCc1cccc(-c2ccccc2)c1` [Example 47, 3-(2-([1,1′-biphenyl]-3-ylmethoxy)phenyl)propanoic acid] stands 87.8 to 88.8 °C; under `O=C(O)CCc1cccc(OCc2cccc(-c3ccccc3)c2)c1` [Example 48, 3-(3-([1,1′-biphenyl]-3-ylmethoxy)phenyl)propanoic acid], 90 to 91 °C.
For the molecule `CCCCCCCC/C=C\CCCCCCCC(=O)OC[C@@H](O)COP(=O)(O)OC[C@H](N)C(=O)O` [compound 1, reference compound], at mouse GPR174, the GPR174/LPS3 agonistic activity entry is recorded as “+++” and the EC50 was found to be 81 nM. In addition, at mouse P2Y10, the P2Y10/LPS2 agonistic activity result is given as “+++” and the EC50 stood at 8.3 nM. At mouse GPR34, the GPR34/LPS1 agonistic activity result was “+++”.
